Values of other authors in patent US7479387B2, “Compositions and methods for the synthesis and subsequent modification of uridine-5′-diphosphosulfoquinovose (UDP-SQ)” (Michigan State University, priority 2000, dated 2009).

Assays:
tumor promotion = details: background statement, Shirahashi et al. 1993
[1] = test system: mammalian DNA polymerases; details: background statement, Ohta et al. 1998
[2] = target: T1, Human Immunodeficiency Virus Reverse Transcriptase 1 (HIV-RT1) (Human immunodeficiency virus type 1 group M subtype B, UniProt P03366); details: background statement, Ohta et al. 1998
T1 construct: Human Immunodeficiency Virus Reverse Transcriptase 1 (HIV-RT1)

6-sulfo-α-D-quinovosyl diacyglycerol [SQDG]
anti-tumor promoting properties (tumor promotion): anti-tumor promoting properties | inhibition of several mammalian DNA polymerases [1]: potent inhibitor | inhibition of HIV-RT1 [2]: potent inhibitor
